Assay results reported in ChEMBL document CHEMBL1641450, “Non-covalent inhibitors of rhinovirus 3C protease” (Bioorg Med Chem Lett, 2011).
≈ marks a conversion by molar mass, not a printed value. Calls of active or inactive are those of the source. No cut-off for these calls is given here.

Key:
[1] = Binding affinity to Human rhinovirus 2 purified 15N-labeled 3C protease after 50 mins by NMR assay; parameters: species or system rhinovirus A2
rhinovirus A2 [2] = assay: Inhibition of Human rhinovirus 2 purified 3C protease at 100 uM preincubated for 30 mins measured after 1 hrs by FRET assay
[3] = Solubility of the compound; type: physicochemical
[4] = Inhibition of Human rhinovirus 2 purified 3C protease preincubated for 30 mins measured after 1 hrs by FRET assay; parameters: species or system rhinovirus A2
rhinovirus A2 [5] = assay: Binding affinity to Human rhinovirus 2 purified 15N-labeled 3C protease at 500 uM after 50 mins by NMR assay

COc1cc(-c2ccccc2)nc2ccccc12 showed a pKd [1] of under 3.
In the case of CNC(=O)Cc1ccc2c(=O)cc(-c3cccnc3)[nH]c2c1, the inhibition (rhinovirus A2 [2]) is reported as 45%.
In the case of Cc1cc2[nH]c(-c3ccccc3)cc(=O)n2n1, the inhibition (rhinovirus A2 [2]) is reported as 43% and the solubility [3] is reported as over 900 µM.
Work on O=c1cc(-c2cccnc2)[nH]c2cc(C(O)c3ccccc3)ccc12 (racemic) yielded an inhibition (rhinovirus A2 [2]) of 80% and a pIC50 [4] of 4.7.
O=C(O)/C=C/c1ccc2[nH]c(-c3cccnc3)cc(=O)c2c1 gave an inhibition (rhinovirus A2 [2]) of 70% and a pIC50 [4] of 4.2.
For O=Cc1ccc2[nH]c(-c3cccnc3)cc(=O)c2c1, the inhibition (rhinovirus A2 [2]) was over 95% and the pIC50 [4] was 6.
CCOC(=O)/C=C/c1ccc2[nH]c(-c3cccnc3)cc(=O)c2c1 showed an inhibition (rhinovirus A2 [2]) of over 90% and a pIC50 [4] of 5.3.
For CCOC(=O)CCc1ccc2[nH]c(-c3cccnc3)cc(=O)c2c1, the inhibition (rhinovirus A2 [2]) was 0% and the Activity (rhinovirus A2 [5]) was “inactive”.
Work on COc1ccc2c(=O)cc(-c3cccnc3)[nH]c2c1 yielded an inhibition (rhinovirus A2 [2]) of under 10%.
Compound CC(=O)c1ccc2[nH]c(-c3cccnc3)cc(=O)c2c1 has an inhibition (rhinovirus A2 [2]) of 25%.
With O=c1cc(-c2ccccc2)oc2ccccc12 [FLAVONE] the pKd [1] was 3.
Oc1cc(-c2ccccc2)nc2ccccc12 gave a pKd [1] of 3.7 and a solubility [3] of 100 µM (≈ 22.1 µg/mL).
Work on c1ccc(-c2ccc3ccccc3n2)cc1 [2-PHENYLQUINOLINE] yielded a pKd [1] of under 3.
In the case of N#Cc1ccc2[nH]c(-c3cccnc3)cc(=O)c2c1, the inhibition (rhinovirus A2 [2]) is reported as 50% and the pIC50 [4] is reported as 4.
For O=c1cc(-c2cccnc2)[nH]c2cc(Cc3ccccc3)ccc12, the inhibition (rhinovirus A2 [2]) was 100%, the pIC50 [4] was 5 and the solubility [3] was 1 µM (≈ 0.312 µg/mL).
Compound CNC(=O)c1ccc2c(=O)cc(-c3cccnc3)[nH]c2c1 has an inhibition (rhinovirus A2 [2]) of 40%.
In the case of Nc1cc(-c2ccccc2)nc2ccccc12, the pKd [1] is reported as 3.
O=c1cc(-c2cccnc2)[nH]c2ccccc12 gave an inhibition (rhinovirus A2 [2]) of 35%, a pKd [1] of 3.5 and a solubility [3] of over 1300 µM.
For Cc1ccc2c(=O)cc(-c3cccnc3)[nH]c2c1, the inhibition (rhinovirus A2 [2]) was 40%.
With Cn1c(-c2ccccc2)cc(=O)c2ccccc21 the pKd [1] was 3.
